Data taken from US7655454B1, “Bacteriological culture medium for Campylobacteriaceae species” (priority 2005, dated 2010).
Where two headings read alike, the source gives them in different places.

Columns and labels:
Type in all cases: cell-based
[1] = test system: Campylobacter jejuni PPMQ2b; conditions: P<0.05
[2] = test system: Campylobacter jejuni PPMQ3b; conditions: P<0.05
[3] = test system: Campylobacter jejuni subsp. jejuni ATCC 33560
[4] = test system: Campylobacter coli ATCC 33559; conditions: P<0.05
[5] = any of the concentrations tested
[6] = approximately 20, 30, 40, or 50 mM acid, P<0.05
[7] = approximately 20, 30, 40, and 50 mM acid
[8] = approximately 30, 40, or 50 mM acid

Row | Compound | absorbance compared with cultures grown in non-supplemented media [1, 5] | absorbance compared with cultures grown in non-supplemented media ([2]; approximately 20 mM acid) | acid concentration required to produce cultures with higher absorbance than in non-supplemented media [1] | absorbance compared with cultures in non-supplemented media [3, 6] | absorbance compared with cultures in non-supplemented media [4, 7] | absorbance compared with cultures in non-supplemented media [4, 8] | other results
1 | O=C(O)CC(O)(CC(=O)O)C(=O)O [Citric, citric acid] | not significantly different | small but significantly higher | – | – | – | – | growth compared with non-supplemented media [3]: significantly more growth; absorbance compared with isolates grown in non-supplemented media ([3]; approximately 50 mM acid, P<0.05): not significantly different; absorbance compared with isolates grown in non-supplemented media ([4]; approximately 50 mM acid): not significantly different; growth compared with non-supplemented media ([4]; approximately 30 or 40 mM acid): significantly more growth
2 | O=C(O)/C=C/C(=O)O [Fumaric, fumaric acid] | – | significantly higher | approximately 30 mM | significantly higher | significantly higher | – | –
3 | CC(O)C(=O)O (racemic) [Lactic, DL-lactic acid] | – | significantly greater | – | significantly higher | – | significantly greater | absorbance compared with cultures grown in non-supplemented media ([1]; approximately 20, 30, 40, or 50 mM acid): significantly greater
4 | O=C(O)CCC(=O)O [Succinic, succinic acid] | none of the concentrations of succinic acid produced significantly higher absorbances | – | – | – | – | significantly higher | absorbance compared with cultures grown in non-supplemented media ([2]; approximately 40 and 50 mM acid): significantly higher; absorbance compared with cultures in non-supplemented media ([3]; approximately 30, 40, or 50 mM acid, P<0.05): significantly higher
5 | O=C(O)CC(O)C(=O)O (racemic) [Malic, DL-malic acid] | – | – | approximately 40 mM | significantly higher | significantly higher | – | acid concentration required to produce cultures with significantly higher absorbances than in non-supplemented media [2]: approximately 20 mM
